Source: US20060094765A1, “Use of a sri and vitamin b6 for the treatment of neurological and mental disorders” (Pantarhei Bioscience B.V., priority 2002, published 2006)

Legend:
[1] = tested on: chronically, mildly stressed rats; assay: Chronic mild stress (CMS) model of depression, sucrose consumption; assay type: in vivo, Male Wistar rats; details: stressed rats, n=8, alone or with pyridoxine 10 mg/kg
Description: (§1) Chronic mild stress (CMS), a well-validated preclinical model of depression (Willner, 1997, Validity, reliability and utility of the chronic mild stress model of depression: a 10-year review and evaluation. Psychopharmacology, 134, 319-329, […] et al., 2002, Preclinical models: status of basic research in depression, Soc. Biol. Psych., 52, 503-528), was used to study the effects of combined therapy of SRI with pyridoxine on responder rate and the time to achieve a full drug response ('onset of action') as compared to treatment with SRI alone. Citalopram, as an example of a SRI, was combined with either pyridoxine or vehicle and administered to chronically, mildly stressed rats during a 5-week treatment schedule. Consumption of sucrose solution after fasting, which a commonly accepted measure of anhedonia, i.e. inability to experience pleasure, was chosen for readout, since this is a core symptom of human depressive disorders. Male Wistar rats were brought into the laboratory two months before the start of the experiment for acclimatization and training (see below). During this period, the animals were singly housed and were maintained on a 12-h light/dark cycle (lights on at 08.00) at a constant temperature of 22±2° C. and humidity (55±5%). Food pellets (containing an optimal level of 1 mg/kg pyridoxine) and water were freely available, with the exception of the deprivation procedure as described below. During a period of 5 weeks, rats were trained to consume a 1% sucrose solution. Training consisted of ten 1-h baseline tests (twice weekly) in which sucrose was presented, in the home cage, following 14 h of food and water deprivation. Sucrose intake was measured by weighing pre-weighed bottles containing the sucrose solution, at the end of the test. Subsequently, sucrose consumption was monitored, under similar conditions, at weekly intervals throughout the whole experiment. […] Mean values in sucrose consumption during stress and subsequently the 5 weeks of vehicle and drug treatment in control and stressed animals were calculated. […]

[2] = as above; assay type: in vivo, Male Wistar rats; details: unstressed control rats; citalopram 2.5 or 5.0 mg/kg, alone or with pyridoxine 10 mg/kg, i.p. daily, 5 weeks
Description: as §1

SMILES: CN(C)CCCC1(c2ccc(F)cc2)OCc2cc(C#N)ccc21 (stereo not drawn) [citalopram]
- responder rate (rats exhibiting increased sucrose intake) ([1]; citalopram 2.5 mg/kg i.p. daily for 5 weeks): 50%
- responder rate (rats exhibiting increased sucrose intake) ([1]; citalopram 5.0 mg/kg i.p. daily for 5 weeks): 62.5%
- effect on sucrose intake in control animals [2]: no significant effect
